According to patent publication US12655131B2, “Pyrazinecarboxamide analog compounds for use in treating cancer” (NOVAPANO, LLC, priority 2019, dated 2026):

What was measured:
[1] = test system: HCT 116 colorectal carcinoma cells; assay: Cell proliferation assay (resazurin) in HCT 116 cells; format: cell-based; settings: Homo sapiens, 72 hr compound incubation, inhibition of proliferation
Experimental: (§1) HCT 116 colorectal carcinoma cells (ECACC/Sigma-Aldrich #91091005) were seeded in medium (McCoy's 5a+10% FBS) at a cell count of 1500 cells per 100 μL per well in a 96 well edge plate (ThermoFisher #167425). Cells were cultured at 37° C. for 24 hr in 5% CO2 environment (culture conditions) in a Nuaire incubator (humidified). Serially diluted test compounds (100 μL) within the desired testing concentration range (e.g., 0.014-30 μM) were added to the culture plate and the cells were further incubated in culture conditions for 72 hr. The experiment was terminated at the designated incubation time by replacing the medium with 100 μL, of 1 mM resazurin (Sigma-Aldrich #R7017) prepared in culture medium, and the plates were further incubated in culture conditions for 4-6 hr. Fluorescence was recorded using a multimodal plate reader (Biotek Synergy Neo) at an excitation wavelength of 535 nm and emission wavelength of 590 nm to obtain relative fluorescence units.
(§2) Data were analyzed as follows: the background fluorescence (blank containing only medium) value was subtracted from each reading and normalized with the vehicle control ([…]treated cells) to obtain percent survival/proliferation. Percent survival was subtracted from 100 to get the percent inhibition of proliferation which was used to calculate IC50 values.

[2] = test system: MIA PaCa-2 human pancreatic carcinoma cells; assay: Cell proliferation assay (resazurin) in MIA PaCa-2 cells; format: cell-based; settings: 96 hr compound incubation, inhibition of proliferation
Experimental: as §1, §2
Testing in MIA PaCa-2 human pancreatic carcinoma cells (ATCC® CRL-1420™) was done identically, except that the medium used was DMFM+10% FBS+2.5% horse serum, the cells were seeded at a cell count of 3000 cells per 100 μL per well and the test compound incubation time was 72 or 96 hr. The potency of compounds in other cell lines may be determined in an analogous manner.

[3] = Microsome stability, human liver microsomes; format: in vitro ADME; settings: NADPH, 37 °C, pH 7.4, read-out: hLM CLint (μg/min/mg)
Experimental: (§3) In a 96 deep well plate, 2.5 μL of 20 μM of each test compound in potassium phosphate buffer (pH 7,4) with 2% 1:9 DMSO:acetonitrile were added to 5 μL of 5 mg/mL microsomes (human liver microsomes (hLM), rat liver microsomes (rLM), or mouse liver microsomes (mLM)) and 37.5 μL of 100 mM prewarmed phosphate buffer (pH 7.4). Time point 0 (T0) samples were immediately quenched with 200 μL of chilled acetonitrile containing 50 ng/mL of internal standard. 5 4, of 10 mM NADPH was added to all other samples to start the reaction. The plate was incubated in a reciprocating water bath at 37 ° C. on 50 rpm for the duration of the assay. The remaining samples were quenched with 200 μL of chilled acetonitrile containing 50 ng/mL of internal standard at various timepoints. The samples were analyzed by LC-MS/MS (Sciex API 4500 QTrap). The % remaining, terminal elimination rate constant (K), half-life (t1/2), and intrinsic clearance (CLint) were calculated.

[4] = Microsome stability, rat liver microsomes; format: in vitro ADME; settings: NADPH, 37 °C, pH 7.4, read-out: rLM CLint (μg/min/mg)
Experimental: as §3

[5] = Microsome stability, mouse liver microsomes; format: in vitro ADME; settings: NADPH, 37 °C, pH 7.4, read-out: mLM CLint (μg/min/mg)
Experimental: as §3

| IC50 [1] [µM] | IC50 [2] [µM] | microsomal CLint at 1 µM [3] [µL/min/mg] | microsomal CLint at 1 µM [4] [µL/min/mg] | microsomal CLint at 1 µM [5] [µL/min/mg] | SMILES |
| --- | --- | --- | --- | --- | --- |
| 16.3 | 30.9 | 258 | 201 | 176 | Nc1nc(NCc2ccc(I)cc2)c(Cl)nc1C(=O)NCCN1CCN(Cc2ccccc2)CC1 [Compound 1, 3-amino-N-(2-(4-benzylpiperazin-1-yl)ethyl)-6-chloro-5-(4-iodobenzylamino) pyrazine-2-carboxamide] |
| 0.69 | 1.9 | 52 | 29 | 67 | N/C(=N\C(=O)c1nc(Cl)c(NCc2ccc(I)cc2)nc1N)NCC1CCN(CCc2ccccc2)CC1 [Compound 51, 3-amino-N-(amino(((1-phenethylpiperidin-1-yl)methyl)amino)methylene)-6-chloro-5-((4-iodobenzyl)amino)pyrazine-2-carboxamide] |
| 1.33 | 2.92 | 20 | 49 | 81 | N/C(=N\C(=O)c1nc(Cl)c(NCc2ccc(I)cc2)nc1N)NCCCOc1ccc(Cl)cc1 [Compound 52, 3-amino-4-(amino(3-(4-chlorophenoxy)propylamino)methylene)-6-chloro-5-(4-iodobenzylamino)pyrazine-2-carboxamide] |
